# Literature values as cited in US10196371B2, “Compounds for the treatment of HPV-induced carcinoma” (Åbo Akademi, priority 2014, dated 2019).
# How the values were obtained:
# [1] = tested on: HPV16 positive cervical cancer cells
smiles,measurement,setting,value
C=C1C(=O)OC2/C=C(/C)CC/C=C(\C(=O)O)CC/C=C(\C)CCC12 (centres unmarked) [anisomelic acid],efficiency in inducing apoptosis,[1],good efficiency
same,protein level expression of E6 and E7,E6 and E7,inhibits
